The values below come from patent US20090253669A1, “Substituted Sulfonamide Compounds” (GRUENENTHAL GmbH, priority 2008, published 2009).

The target in experiment [1] is T1, human B1R receptor (hB1R) (Homo sapiens, UniProt P46663).
T1 construct: host or cells: CHO K1 cells
T1 sequence (P46663 1-353): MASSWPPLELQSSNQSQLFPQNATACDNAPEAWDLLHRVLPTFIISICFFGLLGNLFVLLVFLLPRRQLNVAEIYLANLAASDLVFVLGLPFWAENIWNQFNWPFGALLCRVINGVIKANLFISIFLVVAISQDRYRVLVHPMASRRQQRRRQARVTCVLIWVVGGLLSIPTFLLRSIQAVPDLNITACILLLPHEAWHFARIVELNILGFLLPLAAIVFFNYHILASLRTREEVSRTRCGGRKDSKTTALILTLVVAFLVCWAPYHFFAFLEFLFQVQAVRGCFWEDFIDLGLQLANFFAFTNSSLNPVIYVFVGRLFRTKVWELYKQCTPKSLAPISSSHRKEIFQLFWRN
As to the kind of experiment: FLIPR Ca2+ assay on hB1R-transfected CHO K1 cells, antagonistic action. Type of experiment: cell-based. As to conditions: CHO-K1, 10 μM test substance; agonist Lys-Des-Arg9-bradykinin 0.5 nM; % of maximum achievable inhibition; read-out: hB1R [10 μM] % inhibition.

Experiment [2] concerns the target T2, B1R receptor of the rat (rB1R) (Rattus norvegicus, UniProt P97583).
T2 construct: host or cells: CHO K1 cells
T2 sequence (P97583 1-337): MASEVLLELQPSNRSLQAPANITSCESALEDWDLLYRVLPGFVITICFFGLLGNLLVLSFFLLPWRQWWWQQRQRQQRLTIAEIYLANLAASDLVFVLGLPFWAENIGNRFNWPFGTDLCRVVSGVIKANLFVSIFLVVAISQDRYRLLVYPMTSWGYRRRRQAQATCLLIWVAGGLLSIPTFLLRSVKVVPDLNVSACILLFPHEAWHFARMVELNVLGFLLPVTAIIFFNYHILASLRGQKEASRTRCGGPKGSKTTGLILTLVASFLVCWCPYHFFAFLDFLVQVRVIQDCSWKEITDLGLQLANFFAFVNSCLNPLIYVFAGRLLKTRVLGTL
In words: FLIPR Ca2+ assay on rB1R-transfected CHO K1 cells, antagonistic action. As to conditions: CHO-K1, 10 μM test substance; agonist Des-Arg9-bradykinin 100 nM; % of maximum achievable inhibition; read-out: rB1R [10 μM] % inhibition. The experiment is classed as cell-based.

Consider `Cc1cc(S(=O)(=O)N2CCCCC2CCC(=O)N2CCC(Cc3ccccc3)(N3CCN(C)CC3)CC2)c(C)cc1Cl` (stereo not drawn) [Compound 130, 1-(4-benzyl-4-(4-methylpiperazin-1-yl)piperidin-1-yl)-3-(1-(4-chloro-2,5-dimethylphenylsulfonyl)piperidin-2-yl)propan-1-one], for which the figures for the inhibition at 10 µM in experiment [1] and in experiment [2] were 102% and 49%, respectively.

Take `Cc1cc(S(=O)(=O)N2CCCCC2CCC(=O)N(C)CCC2CCC(CCc3ccccc3)(N3CCCC3)CC2)c(C)cc1Cl` (stereo not drawn) [Compound 131, 3-(1-(4-chloro-2,5-dimethylphenylsulfonyl)piperidin-2-yl)-N-methyl-N-(2-(4-phenethyl-4-(pyrrolidin-1-yl)cyclohexyl)ethyl)propanamide]: the inhibition at 10 µM stood at 99% in experiment [1] and 47% in experiment [2].

`Cc1cc(S(=O)(=O)N2CCCCC2CCC(=O)N(C)CCC2CCC(CCc3ccccc3)(N(C)C)CC2)c(C)cc1Cl` (stereo not drawn) [Compound 132, 3-(1-(4-chloro-2,5-dimethylphenylsulfonyl)piperidin-2-yl)-N-(2-(4-(dimethylamino)-4-phenethylcyclohexyl)ethyl)-N-methylpropanamide]: the inhibition at 10 µM stood at 103% in experiment [1] and 43% in experiment [2].

On to `CN(CCCC1CCC(c2ccccc2)(N2CCCC2)CC1)C(=O)COCC1CCc2ccccc2N1S(=O)(=O)c1ccc(Cl)c(Cl)c1` (stereo not drawn) [Compound 133, 2-((1-(3,4-dichlorophenylsulfonyl)-1,2,3,4-tetrahydroquinolin-2-yl)methoxy)-N-methyl-N-(3-(4-phenyl-4-(pyrrolidin-1-yl)cyclohexyl)propyl)acetamide], for which the values for the inhibition at 10 µM in experiment [1] and in experiment [2] were 92% and 42%, respectively.

In the case of `CN(CCCC1CCC(CCc2ccccc2)(N2CCCC2)CC1)C(=O)CC1CCCCN1S(=O)(=O)c1cccc(C(F)(F)F)c1` (stereo not drawn) [Compound 134, N-methyl-N-(3-(4-phenethyl-4-(pyrrolidin-1-yl)cyclohexyl)propyl)-2-(1-(3-(trifluoromethyl)phenylsulfonyl)piperidin-2-yl)acetamide], the results for the inhibition at 10 µM in experiment [1] and in experiment [2] were 102% and 38%, respectively.

On to `Cc1cc(S(=O)(=O)N2CCCCC2CCC(=O)N2CCC(c3cccc(F)c3)(N3CCN(C)CC3)CC2)c(C)cc1Cl` (stereo not drawn) [Compound 135, 3-(1-(4-chloro-2,5-dimethylphenylsulfonyl)piperidin-2-yl)-1-(4-(3-fluorophenyl)-4-(4-methylpiperazin-1-yl)piperidin-1-yl)propan-1-one], for which the inhibition at 10 µM came out at 104% in experiment [1] and 37% in experiment [2].

Consider `Cc1cc(S(=O)(=O)N2CCCCC2CCC(=O)N(C)CCCC2CCC(c3ccccc3)(N3CCCC3)CC2)c(C)cc1Cl` (stereo not drawn) [Compound 136, 3-(1-(4-chloro-2,5-dimethylphenylsulfonyl)piperidin-2-yl)-N-methyl-N-(3-(4-phenyl-4-(pyrrolidin-1-yl)cyclohexyl)propyl)propanamide], for which the inhibition at 10 µM in experiment [1] came to 99%; in experiment [2], 32%.

Regarding `Cc1cc(S(=O)(=O)N2CCCCC2CCC(=O)N2CCC(CCc3ccccc3)(N(C)C)CC2)c(C)cc1Cl` (stereo not drawn) [Compound 137, 3-(1-(4-chloro-2,5-dimethylphenylsulfonyl)piperidin-2-yl)-1-(4-(dimethylamino)-4-phenethylpiperidin-1-yl)propan-1-one], the inhibition at 10 µM in experiment [1] amounted to 104%; in experiment [2], 30%.

With `Cc1cc(S(=O)(=O)N2CCCCC2CCC(=O)N2CCC(c3ccc(F)cc3)(N3CCN(C)CC3)CC2)c(C)cc1Cl` (stereo not drawn) [Compound 138, 3-(1-(4-chloro-2,5-dimethylphenylsulfonyl)piperidin-2-yl)-1-(4-(4-fluorophenyl)-4-(4-methylpiperazin-1-yl)piperidin-1-yl)propan-1-one], the inhibition at 10 µM in experiment [1] amounted to 102%; in experiment [2], 28%.

In general, inhibition refers to the relative decrease from the control value, in per cent.
